Patent US6835735B2, “4-(phenylamino)-[1,4]dioxano[2,3-g]quinazoline derivatives and process for preparing the same” (Korea Institute of Science and Technology, priority 2001, dated 2004)
≈ marks a conversion by molar mass, not a printed value.

Tests used:
[1] = Measurement of the solubility of compounds in water (HPLC calibration curve); format: physicochemical; settings: supersaturated in 1 ml of water, centrifuged, supernatant by HPLC; read-out: Solubility (mg/10 ml of water)
Procedure: That is, 1 mg of each of the above compounds was completely dissolved in 1 ml of DMSO, which was then subjected to HPLC employing C18 resin, and the peak area of chromatogram was calculated. And then, 1 mg of each of the same compound was dissolved in 10 ml of DMSO, which was then subjected to the same HPLC as the above to obtain a chromatogram, and the peak area was calculated therefrom. A solubility calibration curve was prepared by employing the above two data, and a linear function was deduced from that to complete a calibration curve (X axis: area, Y axis: logarithm value of concentration).
Each of the same compounds was supersaturated in 1 ml of water, which was then centrifuged at 14,000 rpm for 1 min. The precipitate was separated from the supernatant which was then subjected to the same HPLC as the above to obtain a chromatogram, and the peak area was calculated therefrom. The obtained value was substituted to the above calibration curve to measure the solubility by mg/10 ml of water (see: Table 1).

[2] = molecular target: T1, purified human EGFR kinase (Homo sapiens, UniProt P00533); experiment: Inhibition of EGFR tyrosine kinase (P32-ATP, biotin-conjugated substrate); format: biochemical; settings: purified human EGFR kinase, 50 μM ATP, 30° C., 10 min
T1 construct: purchased Promega
T1 sequence (P00533 25-1210): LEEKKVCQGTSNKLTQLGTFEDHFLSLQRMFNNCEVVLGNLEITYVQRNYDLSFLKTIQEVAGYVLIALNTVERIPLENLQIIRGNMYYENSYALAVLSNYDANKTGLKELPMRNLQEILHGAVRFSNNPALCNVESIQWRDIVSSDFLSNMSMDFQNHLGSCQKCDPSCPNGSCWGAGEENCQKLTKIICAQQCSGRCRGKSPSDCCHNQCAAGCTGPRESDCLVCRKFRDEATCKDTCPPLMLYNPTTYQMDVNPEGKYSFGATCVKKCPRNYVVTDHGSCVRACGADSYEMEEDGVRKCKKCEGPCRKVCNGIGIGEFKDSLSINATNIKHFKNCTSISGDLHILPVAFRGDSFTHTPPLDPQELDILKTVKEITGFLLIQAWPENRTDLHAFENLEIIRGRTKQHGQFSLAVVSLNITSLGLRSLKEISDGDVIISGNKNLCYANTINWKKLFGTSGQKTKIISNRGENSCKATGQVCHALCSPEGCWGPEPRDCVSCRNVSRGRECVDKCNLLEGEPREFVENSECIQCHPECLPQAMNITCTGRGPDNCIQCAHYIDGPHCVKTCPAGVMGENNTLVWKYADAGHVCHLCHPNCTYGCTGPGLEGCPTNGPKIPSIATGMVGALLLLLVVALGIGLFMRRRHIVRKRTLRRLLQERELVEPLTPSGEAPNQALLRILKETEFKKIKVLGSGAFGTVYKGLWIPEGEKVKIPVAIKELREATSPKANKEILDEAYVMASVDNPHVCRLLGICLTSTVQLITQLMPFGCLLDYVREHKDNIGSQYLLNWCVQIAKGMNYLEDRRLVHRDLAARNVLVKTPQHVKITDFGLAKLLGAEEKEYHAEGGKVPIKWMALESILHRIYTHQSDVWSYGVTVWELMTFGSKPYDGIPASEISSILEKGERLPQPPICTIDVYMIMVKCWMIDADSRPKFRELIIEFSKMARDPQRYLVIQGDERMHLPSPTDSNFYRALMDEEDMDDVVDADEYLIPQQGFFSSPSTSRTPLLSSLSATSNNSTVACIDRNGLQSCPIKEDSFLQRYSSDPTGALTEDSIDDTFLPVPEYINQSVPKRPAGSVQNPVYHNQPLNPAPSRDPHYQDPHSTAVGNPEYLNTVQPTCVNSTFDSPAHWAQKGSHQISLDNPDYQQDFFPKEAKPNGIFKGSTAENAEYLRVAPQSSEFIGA
Procedure: The test was accomplished in a 20 μl reaction volume using 0.1 unit per reaction of purified human EGFR kinase (Promega, U.S.A.) and 50 μM biotin-conjugated substrate for tyrosine kinase (Promega, U.S.A.) and, 50 μM P^32-γ-ATP (0.2 μCi) and 20 mM Tris-HCl (pH 7.5) were employed as an ATP and a reaction solution, respectively. The test was carried out at 30° C. for 10 min, and terminated by the addition of 10 μl of 30% phosphate solution. The half of the reaction product was spotted onto avidin-layered PVDF membrane, which was then washed with 20 mM Tris-HCl (pH 8.0) and 0.2N NaCl aqueous solution for more than 2 hours.

[3] = tested on: A431 cancer cell; experiment: Inhibition of cancer cell growth (sulforhodamine B); format: cell-based; settings: Homo sapiens, A-431, 48 h, A431 cells, grown 2 days with compound, SRB staining
Procedure: A431 cancer cell was cultivated at 37° C. under an environment of 5% (v/v) CO2 employing RPMI 1640 medium containing 10% (v/v) fetal calf serum. […] The above cells was grown again for 2 days, and then, fixed with formalin solution (Sigma Chem. Co., U.S.A.) and washed with water. After that, the cells was dried in the atmosphere, stained with 0.1% (v/v) sulforhodamine B solution (Sigma Chem. Co., U.S.A.) for 30 min and wash with 1% (v/v) acetic acid aqueous solution. Then, dye attached to cells was extracted with 0.1M Tris-HCl (pH 8.0) and the absorbances of the remaining culture were measured at 520 nm by the aid of microplate reader. And then, the concentration of the compound by which cell growth is 50% inhibited was represented as GI50(s: Table 3).

Compound: COCC1COc2cc3ncnc(Nc4cccc(F)c4)c3cc2O1 (stereo not shown) [Example 8, (3-fluorophenyl)-(7-methoxymethyl-[1,4]-dioxano[2,3-g]quinazolin-4-yl)-amine]
- melting point: 257 to 260 °C
- solubility thermodynamic [1]: 1040 µg/mL (≈ 3050 µM)
- IC50 [2]: > 293 nM
- GI50 [3]: 1.16 µg/mL (≈ 3.4 µM)
